Source: patent US20040058914A1, “Combination drugs” (priority 2000, published 2004)

Tests used:
[1] = tested on: cyclophosphamide-induced pollakiuria rats; experiment: bladder capacity of cyclophosphamide-induced pollakiuria rats under urethane anesthesia (Experimental Example 1, NK-1 + NK-2 antagonist); assay type: in vivo; settings: for bladder capacity Before administration: cyclophosphamide 200 mg/kg i.p. the day before, baseline before i.v. drug; for bladder capacity Before administration / bladder capacity (%) increase / bladder capacity After administration: Compound No. 3 0.3 mg/kg, SR48968 10 mg/kg, mean ± standard error of 5-7 animals; for bladder capacity (%) increase / bladder capacity After administration: cyclophosphamide 200 mg/kg i.p., 10 min. after i.v. administration; for effect on bladder capacity (in words): cyclophosphamide-treated animals, i.v., sole vs combined administration at the doses of Table 1
Protocol: The effect afforded by the combined use of compound No. 3 and (±)SR48968 hydrochloride on the suppressive action on pollakiuria and urinary incontinence was shown by the ability to increase bladder capacity of cyclophosphamide-induced pollakiuria rats under a urethane anesthesia. Cyclophosphamide (200 mg/kg) or a solvent was intraperitoneally administered and the rats were subjected to the bladder capacity test the next day. […] The changes in the bladder capacity at 10 min. after administration were measured.
The data are expressed in mean±standard error.

[2] = tested on: cyclophosphamide-induced pollakiuria rats; experiment: bladder capacity of cyclophosphamide-induced pollakiuria rats under urethane anesthesia (Experimental Example 2, NK-1 antagonist + anti-cholinergic drug); settings: for bladder capacity Before administration: cyclophosphamide 200 mg/kg i.p. the day before, baseline before i.v. drug; for bladder capacity Before administration / bladder capacity (%) increase / bladder capacity After administration: Compound No. 3 0.3 mg/kg, oxybutynin chloride 1 mg/kg, mean ± standard error of 5-7 animals; for bladder capacity (%) increase / bladder capacity After administration: cyclophosphamide 200 mg/kg i.p., 10 min. after i.v. administration; for effect on bladder capacity (in words): cyclophosphamide-treated animals, i.v., sole vs combined administration at the doses of Table 2

Compound | bladder capacity Before administration [1] [mL] | bladder capacity (%) increase [1] [%] | bladder capacity After administration [1] [mL] | effect on bladder capacity (in words) [1] | bladder capacity Before administration [2] [mL] | bladder capacity (%) increase [2] [%] | bladder capacity After administration [2] [mL] | effect on bladder capacity (in words) [2]
CC(=O)NC1(c2ccccc2)CCN(CC[C@H](CN(C)C(=O)c2ccccc2)c2ccc(Cl)c(Cl)c2)CC1 (racemic) [SR48968] | 0.99 ± 0.08 | 3.8 ± 3.3 | 1.03 ± 0.09 | does not increase the bladder capacity | – | – | – | –
Cc1ccc(-c2c3n(c(=O)c4ncccc24)CC[C@@H](C)CN(Cc2cc(C(F)(F)F)cc(C(F)(F)F)c2)C3=O)cc1 [Compound No. 3, (9R)-7-[3,5-bis(trifluoromethyl)benzyl]-6,7,8,9,10,11-hexahydro-9-methyl-5-(4-methylphenyl)-6,13-dioxo-13H-[1,4]diazocino[2,1-g][1,7]naphthyridine] | 1.06 ± 0.14 | −0.28 ± 5.3 | 1.05 ± 0.14 | does not increase the bladder capacity | 0.66 ± 0.08 | 28.6 ± 12.4 | 0.80 ± 0.09 | does not increase the bladder capacity
CCN(CC)CC#CCOC(=O)C(O)(c1ccccc1)C1CCCCC1 (stereo not shown) [oxybutynin chloride] | – | – | – | – | 0.76 ± 0.13 | 6.9 ± 12.4 | 0.78 ± 0.12 | does not increase the bladder capacity
